From patent US8828987B2, “Pyridine amide derivatives as EP4 receptor antagonists” (Rottapharm Biotech S.R.L., priority 2010, dated 2014) come the findings set out here.

Like-named read-outs stand apart in the source and are kept apart here.

Data set [1] addresses T1, human EP4 receptor (Homo sapiens, UniProt P35408).
T1 construct: expressed in transfected cells; membrane fraction used
Nature of the data set: cAMP assay (AlphaScreen) on human EP4 membrane of transfected cells, antagonism of PGE2. It counts as biochemical. The following applies: HEK293 hEP4 cell membrane stimulated with PGE2 3 nM; read-out: functional IC50. The source says: (§1) Stable Expression of Human EP4 Receptors in the Human Embryonic Kidney (HEK293) Cell Line
(§2) The cDNA clone of human EP4 receptor (NM_000958.2) was obtained from Invitrogen™: Ultimate™ ORF Clone Collection—Clone ID IOH46525. The coding sequence was subcloned in expression vector pcDNA™6.2/V5-DEST by Gateway technology (Invitrogen™).
(§3) Human embryonic kidney cells (HEK-293) were stably transfected with expression vector for human EP4 receptor in according to the method described in FuGENE®6 Transfection Reagent's manual (Roche Applied Science®).
(§4) Preparation of Membrane Fraction:
(§5) The EP4 transfected cells were grown in Dulbecco's modified Eagle's medium containing 10% fetal bovine serum and 10 μg/ml Blasticidin S HCl (selection medium) at 37° C. in a humidified atmosphere of 5% CO2 in air.
(§6) For the membrane preparation, cells in flask were harvested by hypotonical/mechanical lysis with chilled (4° C.) TE buffer (5 mM TRIS, 5 mM etylenediamine tetra-acetic acid (EDTA), pH 7.4).
(§7) Cells were detached and lysed with 10 ml of hypotonic lysis buffer and by scraping. The cell lysate was vortexed for 30 sec and centrifuged at 40000×g at 4° C. for 22 min.
b) cAMP Assay on Human EP4 Membrane of Transfected Cells.
The assay is based on the competition between endogenous cAMP and exogenously added biotinylated cAMP. The capture of cAMP is achieved by using a specific antibody conjugated to […] beads.
Cell membranes prepared as described above, were resuspended in 1 ml stimulation buffer (HBSS 1×+BSA 0.1%+IBMX 0.5 mM+HEPES 5 mM+MgCl2 10 mM+GTP 1 nM+GDP 10 μM+ATP 100 μM−pH 7.4). Cell membranes were dispensed into white 384-well microplates at final concentration of 1 μg/well and used for the determination of cAMP with the alphascreen cAMP functional assay (EnVision—PerkinElmer). Cell membrane/anti-cAMP Acceptor beads mix (5 μl) and a mixture of analysed compounds (dissolved in 100% DMSO to a final maximal concentration of 0.01% DMSO)/PGE2 (5 μl) were incubated at room temperature (22-23° C.) for 30 min in the dark. The Biotinylated-cAMP and donor beads (15 μl) were dispensed into each well to start the competition reaction. After 1 h incubation RT (22-23° C.) in the dark the plate was read using EnVision platform to determine the cAMP level (excitation: 680 nm; emission: 520,620 nm).
cAMP standard curve (concentration range from 1×10-6 to 1×10-11 M in. log intervals) with a negative control (no cAMP) a positive control:forskolin 10 μM
Antagonism studies were performed stimulating HEK293 cell membrane with PGE2 3 nM. The AlphaScreen signal is plotted as a function of log concentration of cAMP and functional IC50 is determined. IC50 value is calculated by linear regression.
Some compounds were tested according to method of example 83b.
On the technique in general: Cyclic AMP is a second messenger, typically raised through Gs and lowered through Gi signalling.

The target in data set [2] is T1, human EP4 receptor. As to the kind of experiment: [3H]-Prostaglandin E2 membrane binding assay (human EP4/HEK293 transfectant membranes). The conditions noted are these: [3H]-PGE2 1 nM, hEP4/HEK293 membranes; Ki by Cheng-Prusoff; read-out: Binding pKi (converted).
Text: as §1, §2, §3, §4, §5, §6, §7
a) Membrane Binding Assay[3H]-Prostaglandin E2
The membrane pellet was resuspended in the same buffer (5 mM TRIS, 5 mM ethylenediamine tetra-acetic acid (EDTA), pH 7.4), and protein concentration was determined by Bradford method (Bio-Bad® assay).
This membrane preparation was stored at −80° C. freezer until use for binding assay.
([^3H]-PGE2) membranes binding assays toward hEP4 receptors (human EP4/HEK293 transfectant, see above) and hEP2 receptors (human EP2/HEK293 transfectant, purchased from PerkinElmer Inc) were performed in 10 mM MES-KOH buffer pH6, containing 10 mM MgCl2 and 1 mM CaCl2 for EP4 binding assay or 50 mM Tris-Cl, BSA 0.5% for EP2 binding assay (according to supplier indication).
Ten microgram of protein from membrane fractions were incubated in a total volume of 0.1 ml (EP4) or 0.2 ml (EP2) with 1 nM (EP4) or 3 nM (EP2) [^3H]-PGE2 (PerkinElmer Inc, 171 Ci/mmol). In both assays to determine the total binding or non specific binding, 1% DMSO or 1 μM prostaglandin E2 (EP4) or 100 μM (EP2) were added to reaction mixtures, respectively. Incubation was conducted in a polypropylene 96 multiwell for 90 min (EP4) or 60 min (EP2) at room temperature prior to separation of the bound and free radioligand by vacuum manifold rapid filtration on glass fiber filters (Unifilter GFB96, PerkinElmer Inc) pre-soaked in 0.3% polyethyleneimine. Filters were washed with ice cold buffer pH 7.4 (50 mM HEPES, NaCl 500 mM, BSA 0.1% for EP4 binding assay or 50 mM Tris-Cl for EP2 binding assays) and the residual [^3H]-PGE2 binding determined by solid scintillation counter (TopCount, PerkinElmer Inc).
The affinity (Ki) of each compound was calculated according to the Cheng-Prousoff equation: Ki=IC50/(1+([C]/Kd)). Results were expressed as pKi (−log 10 Ki (M)
Compounds of example 1 to 82 were tested according to method of example 83a in a final concentration range from 1 nM to 1 μM.

Data set [3] is described as follows: Pharmacokinetics in male Han Wistar rats, intravenous and oral. It counts as in vivo. The conditions noted are these: rat, 1.0 mg/kg; for half-life: read-out: t½* (converted). On the procedure: Determination of PK of the Invention Compounds
The pharmacokinetics of compounds E10, E16, E34, E38, E51, were studied in male Han Wistar rats. The rats were treated intravenously and orally (n=3 for each dose route) with a compounds formulated as solutions. The rats were fitted with a jugular cannula for serial sampling. A full profile was acquired for each rat. Plasma extracts were quantitatively analyzed using a specific and sensitive LC-MS/MS bioanalytical method. Inter-individual variations between the three rats in each group were limited (CV for pharmacokinetic parameters was below 50%).

T1 sequence (P35408 whole entry): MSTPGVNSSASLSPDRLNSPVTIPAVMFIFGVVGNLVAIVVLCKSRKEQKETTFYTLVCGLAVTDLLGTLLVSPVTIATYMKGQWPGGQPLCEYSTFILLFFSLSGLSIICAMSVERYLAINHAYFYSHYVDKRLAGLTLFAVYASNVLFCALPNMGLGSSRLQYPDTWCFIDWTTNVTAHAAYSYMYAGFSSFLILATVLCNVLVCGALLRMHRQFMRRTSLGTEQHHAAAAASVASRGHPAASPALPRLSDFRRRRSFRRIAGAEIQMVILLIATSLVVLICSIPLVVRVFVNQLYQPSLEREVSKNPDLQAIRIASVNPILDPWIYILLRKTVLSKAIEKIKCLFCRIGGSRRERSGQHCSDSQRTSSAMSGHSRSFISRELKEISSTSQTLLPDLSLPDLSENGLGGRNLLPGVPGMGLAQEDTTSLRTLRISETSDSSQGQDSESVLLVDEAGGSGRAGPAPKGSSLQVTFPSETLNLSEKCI

`Cc1cc(F)ccc1NC1CN(c2ncc(C(F)(F)F)cc2C(=O)NC2(c3ccc(C(=O)O)cc3)CC2)C1` [E 51, 4-(1-(2-(3-((4-fluoro-2-methylphenyl)amino)azetidin-1-yl)-5-(trifluoromethyl)nicotinamido)cyclopropyl)benzoic acid]: the IC50 on human EP4 receptor [1] stood at 28 nM. In addition, on human EP4 receptor [2], the Ki is 6.31 nM. Further, in data set [3] (male, Han Wistar, plasma, IV), the AUC(0-inf) turned out to be 389 ng·h/mL, the AUC(0-t) was 385 ng·h/mL and the half-life was 1.12 h. In addition, the clearance in data set [3] (male, Han Wistar, plasma, IV, read-out: CLp* (converted)) was 11.2 mL/min. The Vd in data set [3] (male, Han Wistar, plasma, IV, read-out: Vss*) was 0.447 L. Besides, in data set [3] (male, Han Wistar, plasma, PO), the AUC(0-inf) amounted to 231 ng·h/mL, the AUC(0-t) came to 225 ng·h/mL, the highest level (Cmax) was 151 ng/mL and the Tmax turned out to be 0.25 h. Besides, the half-life in data set [3] (male, Han Wistar, plasma, PO) was 1.14 h. Also, in data set [3] (male, Han Wistar, plasma, po, 1 mg/kg, PO, read-out: F %), the bioavailability came to 58%. In addition, the Tlast in data set [3] (IV) is on record as 6 h. This compound also yielded a Tlast in data set [3] (PO) of 6 h.

In the case of `O=C(O)c1ccc(C2(NC(=O)c3cc(Cl)cnc3N3CC(Nc4ccc(F)cc4F)C3)CC2)cc1` [E 35, 4-(1-(5-chloro-2-(3-((2,4-difluorophenyl)amino)azetidin-1-yl)nicotinamido)cyclopropyl)benzoic acid], at human EP4 receptor [1], the IC50 was 59 nM. Besides, the Ki at human EP4 receptor [2] is 6.31 nM.

For the compound `O=C(NC1(c2ccc(-c3nnn[nH]3)cc2)CC1)c1cc(Cl)cnc1N1CC(Oc2cccc(F)c2)C1` [E 82, N-(1-(4-(1H-tetrazol-5-yl)phenyl)cyclopropyl)-5-chloro-2-(3-(3-fluorophenoxy)azetidin-1-yl)nicotinamide], the IC50 at human EP4 receptor [1] is 27 nM. Besides, the Ki on human EP4 receptor [2] was 5.01 nM.

In the case of `O=C(O)c1ccc(C2(NC(=O)c3cc(Cl)cnc3N3CCC(Oc4ccc(F)cc4)C3)CC2)cc1` (single isomer, unassigned) [E 68, 4-(1-(5-chloro-2-(3-(4-fluorophenoxy)pyrrolidin-1-yl)nicotinamido)cyclopropyl)benzoic acid], the IC50 at human EP4 receptor [1] stood at 66 nM. In addition, the Ki on human EP4 receptor [2] is 31.6 nM.

Regarding `O=C(O)c1ccc(C2(NC(=O)c3cc(Cl)cnc3N3CCC(Oc4cccc(F)c4)C3)CC2)cc1` (single isomer, unassigned) [E 71, 4-(1-(5-chloro-2-(3-(3-fluorophenoxy)pyrrolidin-1-yl)nicotinamido)cyclopropyl)benzoic acid], the IC50 at human EP4 receptor [1] came out at 110 nM. Besides, the Ki on human EP4 receptor [2] was 39.8 nM.

Turning to `O=C(O)c1ccc(C2(NC(=O)c3cc(C(F)(F)F)cnc3N3CC(Nc4cccc(F)c4)C3)CC2)cc1` [E 49, 4-(1-(2-(3-((3-fluorophenyl)amino)azetidin-1-yl)-5-(trifluoromethyl)nicotinamido)cyclopropyl)benzoic acid], the IC50 at human EP4 receptor [1] came to 69 nM. The Ki on human EP4 receptor [2] was 25.1 nM.

For the compound `O=C(O)c1ccc(C2(NC(=O)c3cc(C(F)(F)F)cnc3N3CC(Oc4ccc(F)c(C(F)(F)F)c4)C3)CC2)cc1` [E 42, 4-(1-(2-(3-(4-fluoro-3-(trifluoromethyl)phenoxy)azetidin-1-yl)-5-(trifluoromethyl)nicotinamido)cyclopropyl)benzoic acid], at human EP4 receptor [1], the IC50 was 35 nM. Besides, the Ki at human EP4 receptor [2] was 3.16 nM.

Regarding `O=C(O)c1ccc(C2(NC(=O)c3cc(F)cnc3N3CC(Oc4cccc(F)c4)C3)CC2)cc1` [E 53, 4-(1-(5-fluoro-2-(3-(3-fluorophenoxy)azetidin-1-yl)nicotinamido)cyclopropyl)benzoic acid], the IC50 on human EP4 receptor [1] stood at 80 nM. Besides, on human EP4 receptor [2], the Ki was 31.6 nM.

For the compound `O=C(O)c1ccc(C2(NC(=O)c3cc(Cl)cnc3N3CC(Oc4ccc(F)c(C(F)(F)F)c4)C3)CC2)cc1` [E 17, 4-(1-(5-chloro-2-(3-(4-fluoro-3-(trifluoromethyl)phenoxy)azetidin-1-yl)nicotinamido)cyclopropyl)benzoic acid], at human EP4 receptor [1], the IC50 was 82 nM. For the same compound, the Ki on human EP4 receptor [2] was 20 nM.

Regarding `O=C(O)c1ccc(C2(NC(=O)c3cc(Cl)cnc3N3CCC(c4ccccc4)C3)CC2)cc1` (single isomer, unassigned) [E 4, 4-(1-(5-chloro-2-(3-phenylpyrrolidin-1-yl)nicotinamido)cyclopropyl)benzoic acid], the IC50 at human EP4 receptor [1] was 102 nM. Further, the Ki at human EP4 receptor [2] is 200 nM.

Take `O=C(O)c1ccc(C2(NC(=O)c3cc(C(F)(F)F)cnc3N3CC(Oc4cccc(Cl)c4)C3)CC2)cc1` [E 41, 4-(1-(2-(3-(3-chlorophenoxy)azetidin-1-yl)-5-(trifluoromethyl)nicotinamido)cyclopropyl)benzoic acid]: the IC50 on human EP4 receptor [1] was found to be 7.7 nM. Besides, at human EP4 receptor [2], the Ki is 5.01 nM.

Turning to `O=C(O)c1ccc(C2(NC(=O)c3cc(Cl)cnc3N3CCC(Oc4cccc(C(F)(F)F)c4)C3)CC2)cc1` (single isomer, unassigned) [E 63, 4-(1-(5-chloro-2-(3-(3-(trifluoromethyl)phenoxy)pyrrolidin-1-yl)nicotinamido)cyclopropyl)benzoic acid], the 50% inhibitory concentration (IC50) at human EP4 receptor [1] was found to be 145 nM. Also, the Ki at human EP4 receptor [2] was 31.6 nM.

For `C[C@H](NC(=O)c1cc(Cl)cnc1N1CC(Oc2ccc(F)cc2)C1)c1ccc(C(=O)O)cc1` [E 11, (S)-4-(1-(5-chloro-2-(3-(4-fluorophenoxy)azetidin-1-yl)nicotinamido)ethyl)benzoic acid], the IC50 on human EP4 receptor [1] stood at 386 nM. The Ki at human EP4 receptor [2] was 100 nM.

As a reminder, the IC50 is the concentration at which inhibition is half-maximal. What is called AUC(0-inf) is total exposure, with the tail of the curve extrapolated. In general, AUC(0-t) refers to the area under the concentration-time curve up to a stated or last time point. A lower AUC(0-t) goes with less exposure. The Cmax is the maximum level reached in the sampled fluid or tissue. A word on the Tmax: it is the time at which the peak concentration occurs.
